target: T1, crosslinked smooth muscle actomyosin (chicken gizzard smooth muscle myosin subfragment-1 crosslinked to cardiac or skeletal actin) (Gallus gallus, UniProt P10587); test: Lead optimization pyruvate kinase/horseradish peroxidase/pyruvate oxidase-coupled ATPase assay (compound dose response); format: biochemical; details: read-out: IC50 Arithmetic Mean
T1 construct: chicken gizzard smooth muscle myosin subfragment-1; from tissue; host or cells: chicken gizzard
Summary of the method: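 The ATPase used chicken gizzard smooth muscle myosin S1 chemically crosslinked to cardiac or skeletal actin, titrated to a set hydrolysis rate. It was coupled via pyruvate kinase/pyruvate oxidase/HRP in 12 mM K-PIPES pH 7.00 (22 °C) with 0.15 mM ATP, 2 mM MgCl2, 100 mM KCl and 0.1 mM Amplex Red. Fluorescence was read at ex 480/em 615 nm, and IC50 came from a 4-parameter fit.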

Structure (SMILES)	IC50 [µM]
CCc1ccc(NC(=O)OCC2(C(=O)NCc3ccccc3Cl)CCC2)cc1 [[({N-[(2-chlorophenyl)methyl]carbamoyl}cyclobutyl)methoxy]-N-(4-ethylphenyl)carboxamide]	1.88
CCOC(=O)c1ccc(NC(=O)OCC2(C(=O)NCc3ccccc3Cl)CCOCC2)cc1 [ethyl 4-{[(4-{N-[(2-chlorophenyl)methyl]carbamoyl}-2H-3,4,5,6-tetrahydropyran-4-yl)methoxy]carbonylamino}benzoate]	6.39
CCc1ccc(NC(=O)OCC2(C(=O)OC)CCN(C(=O)CN)CC2)cc1 [methyl 1-(2-aminoacetyl)-4-{[N-(4-ethylphenyl)carbamoyloxy]methyl}piperidine-4-carboxylate]	18
CCc1ccc(NC(=O)OCC2(C(=O)NCc3ccccc3Cl)CCN(CC(=O)OC)CC2)cc1 [methyl 2-(4-{N-[(2-chlorophenyl)methyl]carbamoyl}-4-{[N-(4-ethylphenyl)carbamoyloxy]methyl}piperidyl)acetate]	1.52
COC(=O)c1ccccc1CNC(=O)C1(COC(=O)Nc2ccc(C(F)(F)F)cc2)CCN(C(=O)CN)CC1 [methyl 2-({[1-(2-aminoacetyl)-4-({N-[4-(trifluoromethyl)phenyl]carbamoyloxy}methyl)-4-piperidyl]carbonylamino}methyl)benzoate]	2.29
CCc1ccc(NC(=O)NC2(C(=O)NCc3ccccc3Cl)CCN(C(=O)OC)C2)cc1 (stereo not drawn) [methyl 3-{N-[(2-chlorophenyl)methyl]carbamoyl}-3-{[(4-ethylphenyl)amino]carbonylamino}pyrrolidinecarboxylate]	18.6
CCc1ccc(NC(=O)OCC2(C(=O)NCc3ccccc3Cl)CCCN(C(=O)OC)C2)cc1 (stereo not drawn) [methyl 3-{N-[(2-chlorophenyl)methyl]carbamoyl}-3-{[N-(4-ethylphenyl)carbamoyloxy]methyl}piperidinecarboxylate]	0.474
CCc1ccc(NC(=O)OCC2(C(=O)NCc3ccccc3Cl)CCN(C(=O)CCC(=O)OC)CC2)cc1 [methyl 4-(4-{N-[(2-chlorophenyl)methyl]carbamoyl}-4-{[N-(4-ethylphenyl)carbamoyloxy]methyl}piperidyl)-4-oxobutanoate]	0.426
CCc1ccc(NC(=O)OCC2(C(=O)NCc3ccccc3Cl)CCN(C(=O)OC)CC2)cc1 [methyl 4-{N-[(2-chlorophenyl)methyl]carbamoyl}-4-{[N-(4-ethylphenyl)carbamoyloxy]methyl}piperidinecarboxylate]	0.53
COC(=O)c1ccc(NC(=O)OCC2(C(=O)NCc3ccccc3Cl)CCN(C(=O)CN)CC2)cc1 [methyl 4-{[(1-(2-aminoacetyl)-4-{N-[(2-chlorophenyl)methyl]carbamoyl}-4-piperidyl)methoxy]carbonylamino}benzoate]	1.81
COC(=O)c1ccc(NC(=O)OCC2(C(=O)NCc3ccccc3Cl)CCOCC2)cc1 [methyl 4-{[(4-{N-[(2-chlorophenyl)methyl]carbamoyl}-2H-3,4,5,6-tetrahydropyran-4-yl)methoxy]carbonylamino}benzoate]	3.55
CCc1ccc(NC(=O)OC[C@H](C)N(CC(=O)OC(C)(C)C)C(=O)NCc2ccccc2Cl)cc1 [tert-butyl 2-(N-{(1S)-2-[N-(4-ethylphenyl)carbamoyloxy]-isopropyl}{[(2-chlorophenyl)methyl]amino}carbonylamino)acetate]	18.5
CCc1ccc(NC(=O)OCC2(C(=O)NCc3ccccc3Cl)CCN(C(=O)C3CCN3C(=O)OC(C)(C)C)CC2)cc1 (stereo not drawn) [tert-butyl 2-[(4-{N-[(2-chlorophenyl)methyl]carbamoyl}-4-{[N-(4-ethylphenyl)carbamoyloxy]methyl}piperidyl)carbonyl]azetidinecarboxylate]	4.83
CCc1ccc(NC(=O)OCC2(C(=O)NCc3ccccc3Cl)CCN(C(=O)C3COCCN3C(=O)OC(C)(C)C)CC2)cc1 (stereo not drawn) [tert-butyl 3-[(4-{N-[(2-chlorophenyl)methyl]carbamoyl}-4-{[N-(4-ethylphenyl)carbamoyloxy]methyl}piperidyl)carbonyl]morpholine-4-carboxylate]	1.68
CCc1ccc(NC(=O)OCC2(C(=O)NCc3ccccc3Cl)CCN(C(=O)OC(C)(C)C)CC2)cc1 [tert-butyl 4-{N-[(2-chlorophenyl)methyl]carbamoyl}-4-{[N-(4-ethylphenyl)carbamoyloxy]methyl}piperidinecarboxylate]	3.21
NCC(=O)N1CCC(COC(=O)Nc2ccc3ccccc3c2)(C(=O)NCc2ccccc2Cl)CC1 [{1-(2-aminoacetyl)-4-[(N-(2-naphthyl)carbamoyloxy)methyl](4-piperidyl)}-N-[(2-chlorophenyl)methyl]carboxamide]	0.083
NCC(=O)N1CCC(COC(=O)Nc2ccc3c(c2)CCC3)(C(=O)NCc2ccccc2Cl)CC1 [{1-(2-aminoacetyl)-4-[(N-indan-5-ylcarbamoyloxy)methyl](4-piperidyl)}-N-[(2-chlorophenyl)methyl]carboxamide]	0.126
NCC(=O)N1CCC(COC(=O)Nc2ccccc2)(C(=O)NCc2ccccc2Cl)CC1 [{1-(2-aminoacetyl)-4-[(N-phenylcarbamoyloxy)methyl](4-piperidyl)}-N-[(2-chlorophenyl)methyl]carboxamide]	9.21
CCc1ccc(NC(=O)OC2CCCN(C(=O)NCc3ccccc3C)C2)cc1 (stereo not drawn) [{3-[N-(4-ethylphenyl)carbamoyloxy]piperidyl}-N-[(2-methylphenyl)methyl]carboxamide]	5.54
CCc1ccc(NC(=O)O[C@@H]2CCCN(C(=O)NCc3ccccc3Cl)C2)cc1 [{(3R)-3-[N-(4-ethylphenyl)carbamoyloxy]piperidyl}-N-[(2-chlorophenyl)methyl]carboxamide]	1.56
CCc1ccc(NC(=O)O[C@H]2CCCN(C(=O)NCc3ccccc3Cl)C2)cc1 [{(3S)-3-[N-(4-ethylphenyl)carbamoyloxy]piperidyl}-N-[(2-chlorophenyl)methyl]carboxamide]	10.2
CCc1ccc(NC(=O)OCC2(C(=O)NCc3ccccc3C(F)(F)F)CCN(C(=O)CN)CC2)cc1 [{[1-(2-aminoacetyl)-4-(N-{[2-(trifluoromethyl)phenyl]methyl}carbamoyl)(4-piperidyl)]methoxy}-N-(4-ethylphenyl)carboxamide]	0.086
CCc1ccc(NC(=O)OCC2(C(=O)NCc3ccc(C(F)(F)F)cc3F)CCN(C(=O)CN)CC2)cc1 [{[1-(2-aminoacetyl)-4-(N-{[2-fluoro-4-(trifluoromethyl)phenyl]methyl}carbamoyl)(4-piperidyl)]methoxy}-N-(4-ethylphenyl)carboxamide]	11.8
CCc1ccc(NC(=O)OCCN(C)C(=O)NCc2cccc(Cl)c2Cl)cc1 [{[(2,3-dichlorophenyl)methyl]amino}-N-{2-[N-(4-ethylphenyl)carbamoyloxy]ethyl}-N-methylcarboxamide]	0.059
CN(CCOC(=O)Nc1ccc2ccccc2c1)C(=O)NCc1ccccc1Cl [{[(2-chlorophenyl)methyl]amino}-N-methyl-N-[2-(N-(2-naphthyl)carbamoyloxy)ethyl]carboxamide]	0.03
CN(CCOC(=O)Nc1ccc2ncccc2c1)C(=O)NCc1ccccc1Cl [{[(2-chlorophenyl)methyl]amino}-N-methyl-N-[2-(N-(6-quinolyl)carbamoyloxy)ethyl]carboxamide]	1.41
CN(CCOC(=O)Nc1ccc(-c2ccccc2)cc1)C(=O)NCc1ccccc1Cl [{[(2-chlorophenyl)methyl]amino}-N-methyl-N-{2-[N-(4-phenylphenyl)carbamoyloxy]ethyl}carboxamide]	0.248

From patent US8071625B2, “Certain chemical entities, compositions, and methods” (Cytokinetics, Inc., priority 2006, dated 2011)
